Source: patent US9288990B2, “Synergistic weed control from applications of penoxsulam and pethoxamid” (Dow AgroSciences, LLC, priority 2013, dated 2016)

Experiments:
Format in all cases: in vivo
[1] = tested on: Chenopodium album L. (common lambsquarters, CHEAL); assay: Pre-emergence field trial, weed control of CHEAL
Description: (§1) Field trials were conducted with applications made in the area of naturally occurring weed populations in Germany, France, Hungary and Italy. The soil was treated prior to the emergence of target plants. All treatments were applied using a randomized complete block trial design, plots 3 meters (m) wide by 8-10 m long, with 3 replications per treatment.
(§2) Treatments consisted of penoxsulam and pethoxamid, applied alone and in combination. Spray solutions were prepared using an appropriate amount of dilution to treat the area of the plots based on use rates and water volumes necessary based on a per hectacre basis. Spray solutions were prepared and applied with the specified active ingredients in single and two-way combinations to be able to perform Colby synergy calculations. Formulated products were applied to the soil with a backpack or bicycle compressed air sprayer equipped with flat fas nozzles calibrated to deliver from 200 to 300 L/ha at a normal spray height above the solid, at spray pressures ranging from 210 to 350 kilopascals (kPa).
(§3) The treated plots and control plots were rated blind at various intervals after application. Ratings were based on a scale of 0-100%, as discussed above, wherein 0% indicates no control of the undesired vegetation and 100% indicates complete control of the undesired vegetation.
(§4) Colby's equation was used to determine the herbicidal effects expected from the mixtures, as described above. The results were measured at the evaluation intervals provided in Table 1 after the first application of the compositions. […] The herbicide tank mix combinations tested, application rates and ratios employed, plant species tested, and results are given below.

[2] = tested on: Ambrosia artemisiifolia L. (common ragweed, AMBEL); assay: Pre-emergence field trial, weed control of AMBEL
Description: as §1, §2, §3, §4

[3] = tested on: Kickxia elantine (canker root, KICEL); assay: Pre-emergence field trial, weed control of KICEL
Description: as §1, §2
(§5) The treated plots and control plots were rated blind at various intervals after application. […]
(§6) Colby's equation was used to determine the herbicidal effects expected from the mixtures, as described above. The results were measured at the evaluation intervals provided in Table 1 after the first application of the compositions. […]

[4] = tested on: Mercurialis annua (annual mercury, MERAN); assay: Pre-emergence field trial, weed control of MERAN; settings: 29 days
Description: as §1, §2, §5, §6

[5] = tested on: Echinochloa crus-galli (L.) P. Beauv. (barnyardgrass, ECHCG); assay: Pre-emergence field trial, weed control of ECHCG
Description: as §1, §2, §3, §4

[6] = tested on: Xanthium strumarium L. (common cocklebur, XANST); assay: Pre-emergence field trial, weed control of XANST
Description: as §1, §2, §3, §4

[7] = tested on: Polygonum persicaria L. (ladysthumb, POLPE); assay: Pre-emergence field trial, weed control of POLPE; settings: 54 days
Description: as §1, §2, §5, §6

[8] = 14 days, penoxsulam 5 g ai/ha alone
[9] = 28 days, penoxsulam 5 g ai/ha alone
[10] = 28 days, penoxsulam 10 g ai/ha alone
[11] = 58 days, penoxsulam 5 g ai/ha alone
[12] = 58 days, penoxsulam 10 g ai/ha alone
[13] = 14 days, pethoxamid 1200 g ai/ha alone
[14] = 28 days, pethoxamid 1200 g ai/ha alone
[15] = 58 days, pethoxamid 1200 g ai/ha alone

**Q.** What does the source list for `COc1cnc(OC)n2nc(NS(=O)(=O)c3c(OCC(F)F)cccc3C(F)(F)F)nc12` [Penoxsulam]?
**A.** Mean % weed control [1, 8]: 26.67%; Mean % weed control [1, 9]: 13.33%; Mean % weed control ([1]; 29 days, penoxsulam 5 g ai/ha alone): 95%; Mean % weed control ([1]; 46 days, penoxsulam 5 g ai/ha alone): 43.33%; Mean % weed control [2, 8]: 50%; Mean % weed control ([2]; 14 days, penoxsulam 10 g ai/ha alone): 78.33%; Mean % weed control [2, 9]: 33.33%; Mean % weed control [2, 10]: 66.67%; Mean % weed control [2, 11]: 33.33%; Mean % weed control [2, 12]: 66.67%; Mean % weed control ([3]; 696 h): 20%; Mean % weed control ([4]; penoxsulam 10 g ai/ha alone): 36.67%; Mean % weed control [5, 10]: 76.67%; Mean % weed control [5, 11]: 20%; Mean % weed control [5, 12]: 63.33%; Mean % weed control [6, 9]: 20%; Mean % weed control [6, 11]: 10%; Mean % weed control ([7]; penoxsulam 5 g ai/ha alone): 90%

**Q.** `CCOCCN(C(=O)CCl)C(=C(C)C)c1ccccc1` [Pethoxamid, 2-chloro-N-(ethoxyethyl)-N-(2-methyl-1-phenylprop-1-enyl)acetamide] was tested. Which “Mean % weed control” value [1, 13] did it give?
**A.** Its value is 26.67%.

**Q.** And the “Mean % weed control” value [1, 14]?
**A.** Its value is 6.67%.

**Q.** And the “Mean % weed control” value ([1]; 29 days, pethoxamid 1200 g ai/ha alone)?
**A.** Its value is 0%.

**Q.** What about the “Mean % weed control” value ([1]; 46 days, pethoxamid 1200 g ai/ha alone) of the same compound?
**A.** The value was 16.67%.

**Q.** What about the “Mean % weed control” value [2, 13] of the same compound?
**A.** Its value is 33.33%.

**Q.** And the “Mean % weed control” value [2, 14]?
**A.** The value was 13.33%.

**Q.** And the “Mean % weed control” value [2, 15]?
**A.** Its value is 13.33%.

**Q.** What about the “Mean % weed control” value ([3]; KICEL, 29 days, pethoxamid 1200 g ai/ha alone) of the same compound?
**A.** The value was 0%.

**Q.** And the “Mean % weed control” value ([4]; pethoxamid 1200 g ai/ha alone)?
**A.** Its value is 0%.

**Q.** What about the “Mean % weed control” value [5, 14] of the same compound?
**A.** Its value is 33.33%.

**Q.** And the “Mean % weed control” value [5, 15]?
**A.** The value was 16.67%.

**Q.** And the “Mean % weed control” value [6, 14]?
**A.** Its value is 3.33%.

**Q.** What about the “Mean % weed control” value [6, 15] of the same compound?
**A.** The value was 0%.

**Q.** What about the “Mean % weed control” value ([7]; pethoxamid 1200 g ai/ha alone) of the same compound?
**A.** Its value is 72.33%.
